Results as given in patent US8518958B2, “Pyrido [2,3-D] pyrimidines and their use as kinase inhibitors” (Forma Therapeutics, Inc., priority 2006, dated 2013).

What was measured:
[1] = target: C-Raf Raf-1 (truncated), active (Homo sapiens, UniProt P04049, Y340D/Y341D); assay: C-Raf kinase inhibition (MAPH assay / IMAP assay); conditions: read-out: Biochemical IC50 C-Raf
How it was run: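 Truncated active human C-Raf (Y340D/Y341D), room temperature, top inhibitor concentration 10 μM in a dilution series for IC50. MAPH: 57.8 μM myelin basic protein with [γ-33P]ATP, kinase at 10% ATP turnover, 1 h, filter-bound radioactivity. IMAP: 400 nM fluorescent peptide, 20 mM Hepes pH 7.5 with 10 mM MnCl2, kinase at 50% turnover, fluorescence polarization.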

HT-29 tumor cells = assay: Anti-proliferative activity, SRB assay; assay type: cell-based, human; conditions: Homo sapiens, HT-29, 72 h, 72 hours exposure, read-out: CELLULAR IC50 HT-29
How it was run: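 IC50 derived from % inhibition relative to DMSO controls, measured by sulforhodamine B binding (OD570) after TCA fixation. Cells (3,000-15,000 per well) were seeded a day ahead, then treated with graded compound concentrations for 72 hours.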

B-Raf delta1-415 = B-Raf delta1-415 (Homo sapiens, UniProt P15056); assay: B-Raf kinase inhibition (MAPH filter plate, 33P-ATP, MEK1 substrate); conditions: read-out: Biochemical IC50 B-Raf
Chain of B-Raf delta1-415 (P15056 416-766): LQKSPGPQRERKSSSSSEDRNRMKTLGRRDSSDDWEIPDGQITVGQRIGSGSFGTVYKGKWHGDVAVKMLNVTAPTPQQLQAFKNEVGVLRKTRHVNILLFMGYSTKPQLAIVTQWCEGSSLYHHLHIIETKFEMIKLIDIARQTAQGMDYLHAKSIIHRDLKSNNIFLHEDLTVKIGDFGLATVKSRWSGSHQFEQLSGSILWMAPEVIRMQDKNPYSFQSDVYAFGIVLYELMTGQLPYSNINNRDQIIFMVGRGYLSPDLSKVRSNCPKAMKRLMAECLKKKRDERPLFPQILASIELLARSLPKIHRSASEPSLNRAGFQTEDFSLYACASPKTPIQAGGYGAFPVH
How it was run: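 IC50 values come from dilution series (top 10 μM) measured by scintillation counting of 33P-labelled MEK1 retained on H3PO4-washed filters. Reactions ran 1 h at room temperature in pH 7.0 Mops buffer with MgCl2, MnCl2 and DTT, using 12.5 μCi/ml [γ-33P]ATP and B-Raf delta1-415 titrated to 50% turnover.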

Chain of C-Raf Raf-1 (truncated), active (P04049 306-648 Y340D/Y341D): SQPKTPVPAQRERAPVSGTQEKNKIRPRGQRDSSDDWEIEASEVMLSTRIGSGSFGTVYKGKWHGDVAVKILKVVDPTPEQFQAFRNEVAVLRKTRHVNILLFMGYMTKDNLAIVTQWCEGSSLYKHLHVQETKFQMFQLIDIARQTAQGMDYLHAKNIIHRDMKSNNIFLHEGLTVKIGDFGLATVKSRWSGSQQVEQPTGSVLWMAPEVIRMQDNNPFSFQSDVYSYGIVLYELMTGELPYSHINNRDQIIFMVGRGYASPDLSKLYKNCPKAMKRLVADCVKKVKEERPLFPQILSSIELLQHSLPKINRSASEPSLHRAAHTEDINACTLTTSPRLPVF

Row | SMILES | IC50 [1] | IC50 (HT-29 tumor cells) | IC50 (B-Raf delta1-415)
1 | COn1c(=O)c(-c2c(F)cccc2Cl)cc2cnc(Nc3cccc(S(N)(=O)=O)c3)nc21 [Compound 30, 6-(2-Chloro-6-fluorophenyl)-8-methoxy-2-(3-sulfamoylphenylamino)-pyrido[2,3-d]pyrimidin-7-one] | < 0.1 µM | < 1 µM | < 0.1 µM
2 | COn1c(=O)c(-c2c(Cl)cccc2Cl)cc2cnc(Nc3ccc(OCCN(C)C)cc3)nc21 [Compound 24, 6-(2,6-Dichlorophenyl)-8-methoxy-2-(4-(2-dimethylaminoethoxy)-phenylamino)-pyrido[2,3-d]pyrimidin-7-one] | < 0.1 µM | < 1 µM | < 0.1 µM
3 | COc1cccc(Nc2ncc3cc(-c4c(Cl)cccc4Cl)c(=O)n(OCCCCN)c3n2)c1 [Compound 41, 8-(4-Aminobutoxy)-6-(2,6-dichlorophenyl)-2-(3-methoxyphenylamino)-pyrido[2,3-d]pyrimidin-7-one] | < 0.1 µM | < 1 µM | < 0.5 µM
4 | COn1c(=O)c(-c2c(Cl)cccc2Cl)cc2cnc(Nc3cccc(CN4CCCC4)c3)nc21 [Compound 21, 6-(2,6-Dichlorophenyl)-8-methoxy-2-(3-(pyrrolidin-1-yl)methylphenylamino)-pyrido[2,3-d]pyrimidin-7-one] | < 0.1 µM | < 1 µM | < 0.5 µM
5 | COn1c(=O)c(-c2ccccc2Cl)cc2cnc(Nc3ccccc3)nc21 [Compound 22, 6-(2-Chlorophenyl)-8-methoxy-2-phenylamino-pyrido[2,3-d]pyrimidin-7-one] | < 0.1 µM | < 10 µM | < 0.5 µM
6 | COn1c(=O)c(-c2cc(NC(=O)c3cccc(Cl)c3)ccc2Cl)cc2cnc(Nc3ccccc3)nc21 [Compound 36] | < 0.1 µM | < 10 µM | > 1 µM
7 | COCCNc1ncc2cc(-c3c(Cl)cccc3Cl)c(=O)n(OC)c2n1 [Compound 48, 6-(2,6-Dichlorophenyl)-8-methoxy-2-methoxyethylamino-pyrido[2,3-d]pyrimidin-7-one] | < 0.1 µM | > 10 µM | < 0.5 µM
